Laboratory results published in US6339042B1, “Herbicidal N-cyclohexadienyl heteroaryloxyacetamides” (American Cyanamid Co., priority 1999, dated 2002).

Assays:
Details in all cases: three weeks after treatment
[1] = system: Zea mays; assay: Pre-emergence herbicidal evaluation, ZEAMX; assay type: in vivo
Source text: (§1) The treated pots are then placed on greenhouse benches, watered and cared for in accordance with conventional greenhouse procedures.

[2] = system: Hordeum vulgare; assay: Pre-emergence herbicidal evaluation, HORVW; assay type: in vivo
Source text: as §1

[3] = system: Lolium perenne; assay: Post-emergence herbicidal evaluation, LOLPE
Description: (§2) Each pot is examined three weeks after treatment and phytotoxicity is assessed according to the rating system set forth below.
(§3) These acetone solutions are diluted with water and the resulting formulations applied at dosage levels equivalent of about 0.4 to 0.1 kg per hectare of test compound per pot. After spraying the plants are placed on greenhouse benches and are cared for in the usual manner, commensurate with conventional greenhouse practices.

[4] = system: Echinochloa crus-galli; assay: Post-emergence herbicidal evaluation, ECHCG
Description: The compounds of the invention are tested for pre- and post-emergence herbicidal activity.
as §2, §3

[5] = system: Echinochloa crus-galli; assay: Pre-emergence herbicidal evaluation, ECHCG; assay type: in vivo
Source text: as §1

[6] = system: Setaria viridis; assay: Pre-emergence herbicidal evaluation, SETVI; assay type: in vivo
Source text: as §1

[7] = system: Apera spica venti; assay: Post-emergence herbicidal evaluation, APESV
[8] = system: Zea mays; assay: Post-emergence herbicidal evaluation, ZEAMX
[9] = system: Glycine max; assay: Post-emergence herbicidal evaluation, GLXMA
Description: as §2, §3

[10] = system: Apera spica venti; assay: Pre-emergence herbicidal evaluation, APESV; assay type: in vivo
Source text: as §1

[11] = system: Amaranthus tuberculatus; assay: Post-emergence herbicidal evaluation, AMATA; assay type: in vivo
[12] = system: Oryza sativum; assay: Pre-emergence herbicidal evaluation, ORYSA; assay type: in vivo
Source text: as §1

[13] = system: Alopecurus myosuroides; assay: Pre-emergence herbicidal evaluation, ALOMY; assay type: in vivo
Source text: as §1

[14] = system: Triticum aestivum; assay: Post-emergence herbicidal evaluation, TRZAW
[15] = system: Amaranthus tuberculatus; assay: Pre-emergence herbicidal evaluation, AMATA; assay type: in vivo
Source text: as §1

[16] = system: Triticum aestivum; assay: Pre-emergence herbicidal evaluation, TRZAW; assay type: in vivo
Source text: as §1

[17] = system: Glycine max; assay: Pre-emergence herbicidal evaluation, GLXMA; assay type: in vivo
Source text: as §1

[18] = system: Oryza sativum; assay: Post-emergence herbicidal evaluation, ORYSA
[19] = system: Galium aparine; assay: Post-emergence herbicidal evaluation, GALAP
[20] = system: Lolium perenne; assay: Pre-emergence herbicidal evaluation, LOLPE; assay type: in vivo
Source text: as §1

[21] = system: Hordeum vulgare; assay: Post-emergence herbicidal evaluation, HORVW
[22] = system: Setaria viridis; assay: Post-emergence herbicidal evaluation, SETVI
[23] = system: Alopecurus myosuroides; assay: Post-emergence herbicidal evaluation, ALOMY

In the case of `CCc1nnc(OCC(=O)N(CC)C2=CC(C)(C)CC(C)=C2)s1` [Example 6], the “phytotoxicity rating ZEAMX” value ([1]; 0.100 kg/ha) was 0 (0 - No effect), the “phytotoxicity rating ZEAMX” value ([1]; 0.200 kg/ha) was 0 (0 - No effect) and the “phytotoxicity rating ZEAMX” value ([1]; 0.400 kg/ha) was 0 (0 - No effect). For the same compound, the “phytotoxicity rating ZEAMX” value ([1]; 0.800 kg/ha) was 0 (0 - No effect), the “phytotoxicity rating HORVW” value ([2]; 0.100 kg/ha) was 0 (0 - No effect) and the “phytotoxicity rating HORVW” value ([2]; 0.200 kg/ha) was 0 (0 - No effect). The “phytotoxicity rating HORVW” value ([2]; 0.400 kg/ha) was 1 (1 - Trace effect), the “phytotoxicity rating HORVW” value ([2]; 0.800 kg/ha) was 3 (3 - Moderate effect) and the “phytotoxicity rating LOLPE” value ([3]; 0.100 kg/ha) was 0 (0 - No effect). For the same compound, the “phytotoxicity rating LOLPE” value ([3]; 0.200 kg/ha) was 0 (0 - No effect), the “phytotoxicity rating LOLPE” value ([3]; 0.400 kg/ha) was 0 (0 - No effect) and the “phytotoxicity rating ECHCG” value ([4]; 0.100 kg/ha) was 0 (0 - No effect). For the same compound, the “phytotoxicity rating ECHCG” value ([4]; 0.200 kg/ha) was 0 (0 - No effect), the “phytotoxicity rating ECHCG” value ([4]; 0.400 kg/ha) was 0 (0 - No effect) and the “phytotoxicity rating ECHCG” value ([5]; 0.100 kg/ha) was 3 (3 - Moderate effect). The “phytotoxicity rating ECHCG” value ([5]; 0.200 kg/ha) was 6 (6 - Herbicidal effect), the “phytotoxicity rating ECHCG” value ([5]; 0.400 kg/ha) was 8 (8 - Approaching complete kill) and the “phytotoxicity rating ECHCG” value ([5]; 0.800 kg/ha) was 9 (9 - Complete kill). The “phytotoxicity rating SETVI” value ([6]; 0.200 kg/ha) was 5 (5 - Definite injury), the “phytotoxicity rating SETVI” value ([6]; 0.400 kg/ha) was 8 (8 - Approaching complete kill) and the “phytotoxicity rating SETVI” value ([6]; 0.800 kg/ha) was 9 (9 - Complete kill). For the same compound, the “phytotoxicity rating APESV” value ([7]; 0.100 kg/ha) was 0 (0 - No effect), the “phytotoxicity rating APESV” value ([7]; 0.200 kg/ha) was 0 (0 - No effect) and the “phytotoxicity rating APESV” value ([7]; 0.400 kg/ha) was 1 (1 - Trace effect). For the same compound, the “phytotoxicity rating ZEAMX” value ([8]; 0.100 kg/ha) was 0 (0 - No effect), the “phytotoxicity rating ZEAMX” value ([8]; 0.200 kg/ha) was 0 (0 - No effect) and the “phytotoxicity rating ZEAMX” value ([8]; 0.400 kg/ha) was 0 (0 - No effect). For the same compound, the “phytotoxicity rating GLXMA” value ([9]; 0.100 kg/ha) was 3 (3 - Moderate effect), the “phytotoxicity rating GLXMA” value ([9]; 0.200 kg/ha) was 4 (4 - Injury) and the “phytotoxicity rating GLXMA” value ([9]; 0.400 kg/ha) was 4 (4 - Injury). For the same compound, the “phytotoxicity rating APESV” value ([10]; 0.100 kg/ha) was 0 (0 - No effect), the “phytotoxicity rating APESV” value ([10]; 0.200 kg/ha) was 0 (0 - No effect) and the “phytotoxicity rating APESV” value ([10]; 0.400 kg/ha) was 0 (0 - No effect). For the same compound, the “phytotoxicity rating APESV” value ([10]; 0.800 kg/ha) was 9 (9 - Complete kill), the “phytotoxicity rating AMATA” value ([11]; 0.100 kg/ha) was 0 (0 - No effect) and the “phytotoxicity rating AMATA” value ([11]; 0.200 kg/ha) was 0 (0 - No effect). The “phytotoxicity rating AMATA” value ([11]; 0.400 kg/ha) was 0 (0 - No effect), the “phytotoxicity rating ORYSA” value ([12]; 0.100 kg/ha) was 0 (0 - No effect) and the “phytotoxicity rating ORYSA” value ([12]; 0.200 kg/ha) was 0 (0 - No effect). For the same compound, the “phytotoxicity rating ORYSA” value ([12]; 0.400 kg/ha) was 3 (3 - Moderate effect), the “phytotoxicity rating ORYSA” value ([12]; 0.800 kg/ha) was 7 (7 - Good herbicidal effect) and the “phytotoxicity rating ALOMY” value ([13]; 0.200 kg/ha) was 5 (5 - Definite injury). For the same compound, the “phytotoxicity rating ALOMY” value ([13]; 0.400 kg/ha) was 6 (6 - Herbicidal effect), the “phytotoxicity rating ALOMY” value ([13]; 0.800 kg/ha) was 9 (9 - Complete kill) and the “phytotoxicity rating TRZAW” value ([14]; 0.100 kg/ha) was 0 (0 - No effect). For the same compound, the “phytotoxicity rating TRZAW” value ([14]; 0.200 kg/ha) was 0 (0 - No effect), the “phytotoxicity rating TRZAW” value ([14]; 0.400 kg/ha) was 1 (1 - Trace effect) and the “phytotoxicity rating AMATA” value ([15]; 0.100 kg/ha) was 0 (0 - No effect). For the same compound, the “phytotoxicity rating AMATA” value ([15]; 0.200 kg/ha) was 0 (0 - No effect), the “phytotoxicity rating AMATA” value ([15]; 0.400 kg/ha) was 0 (0 - No effect) and the “phytotoxicity rating AMATA” value ([15]; 0.800 kg/ha) was 5 (5 - Definite injury). The “phytotoxicity rating TRZAW” value ([16]; 0.100 kg/ha) was 0 (0 - No effect), the “phytotoxicity rating TRZAW” value ([16]; 0.200 kg/ha) was 0 (0 - No effect) and the “phytotoxicity rating TRZAW” value ([16]; 0.400 kg/ha) was 0 (0 - No effect). For the same compound, the “phytotoxicity rating TRZAW” value ([16]; 0.800 kg/ha) was 2 (2 - Slight effect), the “phytotoxicity rating GLXMA” value ([17]; 0.100 kg/ha) was 0 (0 - No effect) and the “phytotoxicity rating GLXMA” value ([17]; 0.200 kg/ha) was 0 (0 - No effect). The “phytotoxicity rating GLXMA” value ([17]; 0.400 kg/ha) was 0 (0 - No effect), the “phytotoxicity rating GLXMA” value ([17]; 0.800 kg/ha) was 0 (0 - No effect) and the “phytotoxicity rating ORYSA” value ([18]; 0.100 kg/ha) was 0 (0 - No effect). For the same compound, the “phytotoxicity rating ORYSA” value ([18]; 0.200 kg/ha) was 1 (1 - Trace effect), the “phytotoxicity rating ORYSA” value ([18]; 0.400 kg/ha) was 2 (2 - Slight effect) and the “phytotoxicity rating GALAP” value ([19]; 0.100 kg/ha) was 0 (0 - No effect). For the same compound, the “phytotoxicity rating GALAP” value ([19]; 0.200 kg/ha) was 0 (0 - No effect), the “phytotoxicity rating GALAP” value ([19]; 0.400 kg/ha) was 4 (4 - Injury) and the “phytotoxicity rating LOLPE” value ([20]; 0.100 kg/ha) was 0 (0 - No effect). For the same compound, the “phytotoxicity rating LOLPE” value ([20]; 0.200 kg/ha) was 0 (0 - No effect), the “phytotoxicity rating LOLPE” value ([20]; 0.400 kg/ha) was 5 (5 - Definite injury) and the “phytotoxicity rating LOLPE” value ([20]; 0.800 kg/ha) was 7 (7 - Good herbicidal effect). For the same compound, the “phytotoxicity rating HORVW” value ([21]; 0.100 kg/ha) was 0 (0 - No effect), the “phytotoxicity rating HORVW” value ([21]; 0.200 kg/ha) was 0 (0 - No effect) and the “phytotoxicity rating HORVW” value ([21]; 0.400 kg/ha) was 0 (0 - No effect). The “phytotoxicity rating SETVI” value ([22]; 0.100 kg/ha) was 0 (0 - No effect), the “phytotoxicity rating SETVI” value ([22]; 0.200 kg/ha) was 0 (0 - No effect) and the “phytotoxicity rating SETVI” value ([22]; 0.400 kg/ha) was 0 (0 - No effect). The “phytotoxicity rating ALOMY” value ([23]; 0.100 kg/ha) was 0 (0 - No effect), the “phytotoxicity rating ALOMY” value ([23]; 0.200 kg/ha) was 4 (4 - Injury) and the “phytotoxicity rating ALOMY” value ([23]; 0.400 kg/ha) was 8 (8 - Approaching complete kill).
